Measured values published in ChEMBL document CHEMBL1201862, “PubChem BioAssay data set” (2004).
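Five compound concentrations were applied to cells in 96-well plates for 48 hours; endpoints were derived by simple linear interpolation of the resulting dose-response curve. The concentration for 50% growth inhibition is given as GI50.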 Active and inactive are the calls of the source. Cut-off read from the data, not from the text of the source: active = GI50 up to about 1.1 µM and inactive = higher.

What was measured:
Assay in all cases: growth of human tumour cells (NCI), 48 h
CAKI-1 = test system: CAKI-1
U-251 = test system: U-251
Malme-3M = test system: Malme-3M
SNB-19 = test system: SNB-19
HCT-116 = test system: HCT-116
MOLT-4 = test system: MOLT-4
UACC-257 = test system: UACC-257
OVCAR-5 = test system: OVCAR-5
SF-539 = test system: SF-539
HCC 2998 = test system: HCC 2998
RPMI-8226 = test system: RPMI-8226
KM12 = test system: KM12
SR = test system: SR
SN12C = test system: SN12C
UACC-62 = test system: UACC-62
SK-MEL-5 = test system: SK-MEL-5

Measured: GI50

CC1CCCc2c(CC3CC(=O)NC(=O)C3)n[nH]c21 (stereo not given)
inactive: CAKI-1 > 100 µM | U-251 > 100 µM | Malme-3M > 100 µM | SNB-19 > 100 µM | HCT-116 > 100 µM | MOLT-4 > 100 µM | UACC-257 > 100 µM | OVCAR-5 > 100 µM | SF-539 > 100 µM | HCC 2998 > 100 µM | RPMI-8226 > 100 µM | KM12 > 100 µM | SR > 100 µM | SN12C > 100 µM | UACC-62 > 100 µM

Cc1ccccc1NC(=O)c1ccc([N+](=O)[O-])cc1
inactive: CAKI-1 > 100 µM | U-251 > 100 µM | Malme-3M > 100 µM | SNB-19 > 100 µM | HCT-116 > 100 µM | MOLT-4 > 100 µM | UACC-257 > 100 µM | OVCAR-5 > 100 µM | SF-539 > 100 µM | HCC 2998 > 100 µM | RPMI-8226 > 100 µM | KM12 67.5 µM | SN12C > 100 µM | UACC-62 > 100 µM | SK-MEL-5 84.9 µM

COc1cc(Nc2nc3cc(C(F)(F)F)ccc3nc2C)cc(OC)c1OC
inactive: CAKI-1 7.11 µM | U-251 9.95 µM | Malme-3M 13.6 µM | HCT-116 8.81 µM | MOLT-4 6.95 µM | UACC-257 6.37 µM | OVCAR-5 13.3 µM | SF-539 12.2 µM | HCC 2998 3.61 µM | KM12 6.32 µM | SR 6.15 µM | SN12C 10.4 µM | UACC-62 3.94 µM | SK-MEL-5 9.79 µM

Cc1oc2c(C)c3oc(=O)cc(C)c3cc2c1CN
inactive: U-251 23 µM | Malme-3M 25.2 µM | SNB-19 41.5 µM | HCT-116 22.8 µM | MOLT-4 24.7 µM | UACC-257 41.3 µM | OVCAR-5 42.1 µM | SF-539 40.9 µM | HCC 2998 28.1 µM | RPMI-8226 39.4 µM | KM12 49.5 µM | SN12C 42.5 µM | UACC-62 92.3 µM

O=C1C(=O)N(C(=O)c2ccc(Cl)c(Cl)c2)c2ccc(Cl)cc21
inactive: U-251 > 100 µM | SNB-19 > 100 µM | MOLT-4 43.9 µM | OVCAR-5 > 100 µM | SF-539 > 100 µM | RPMI-8226 35.6 µM | KM12 > 100 µM | SR 89.7 µM | UACC-62 > 100 µM | SK-MEL-5 > 100 µM

CCN(CC)CC1CCCCN1CC(=O)N1CC(C)C(=O)Nc2ccccc21 (stereo not given)
inactive: CAKI-1 > 100 µM | U-251 > 100 µM | Malme-3M > 100 µM | SNB-19 > 100 µM | HCT-116 > 100 µM | MOLT-4 > 100 µM | UACC-257 > 100 µM | OVCAR-5 > 100 µM | HCC 2998 > 100 µM | RPMI-8226 > 100 µM | SR > 100 µM | SN12C > 100 µM | UACC-62 > 100 µM | SK-MEL-5 > 100 µM

Cc1nc(Nc2nnc(-c3cc([N+](=O)[O-])cc([N+](=O)[O-])c3C)o2)sc1C(=O)CC(=O)Cc1nc2ccc(Cl)cc2nc1O
inactive: CAKI-1 > 100 µM | U-251 > 100 µM | SNB-19 > 100 µM | HCT-116 > 100 µM | MOLT-4 > 100 µM | UACC-257 > 100 µM | OVCAR-5 > 100 µM | SF-539 > 100 µM | HCC 2998 > 100 µM | RPMI-8226 > 100 µM | KM12 > 100 µM | SR 77.6 µM | SN12C > 100 µM | UACC-62 33.6 µM | SK-MEL-5 > 100 µM

O=C(c1ccco1)N(C(=S)N1CCN(c2ccccc2)CC1)C1CCCCC1
inactive: CAKI-1 > 100 µM | U-251 > 100 µM | Malme-3M > 100 µM | SNB-19 > 100 µM | HCT-116 62.8 µM | MOLT-4 > 100 µM | UACC-257 72.4 µM | OVCAR-5 > 100 µM | SF-539 > 100 µM | RPMI-8226 > 100 µM | KM12 > 100 µM | SR > 100 µM | SN12C > 100 µM | UACC-62 > 100 µM | SK-MEL-5 56.4 µM

COc1cc(-c2ccccc2)c(OC)cc1CCl
inactive: CAKI-1 > 100 µM | U-251 > 100 µM | Malme-3M > 100 µM | SNB-19 > 100 µM | HCT-116 > 100 µM | MOLT-4 > 100 µM | UACC-257 > 100 µM | OVCAR-5 > 100 µM | SF-539 > 100 µM | HCC 2998 > 100 µM | RPMI-8226 > 100 µM | KM12 > 100 µM | SN12C > 100 µM | UACC-62 > 100 µM | SK-MEL-5 > 100 µM

COc1ccc(/C=C/C(=O)c2cc(C(=O)O)c(OC)cc2OC)cc1OC
inactive: U-251 > 100 µM | SNB-19 > 100 µM | HCT-116 > 100 µM | MOLT-4 > 100 µM | UACC-257 > 100 µM | OVCAR-5 > 100 µM | SF-539 > 100 µM | RPMI-8226 > 100 µM | KM12 > 100 µM | SR > 100 µM | SN12C > 100 µM | UACC-62 > 100 µM | SK-MEL-5 > 100 µM

OC(CC1SCCCS1)c1ccccc1 (stereo not given)
inactive: CAKI-1 > 100 µM | U-251 > 100 µM | Malme-3M > 100 µM | SNB-19 > 100 µM | HCT-116 > 100 µM | MOLT-4 > 100 µM | UACC-257 > 100 µM | OVCAR-5 > 100 µM | SF-539 > 100 µM | HCC 2998 > 100 µM | RPMI-8226 > 100 µM | KM12 > 100 µM | SN12C > 100 µM | UACC-62 > 100 µM | SK-MEL-5 > 100 µM

O=c1c2ccccc2c(=O)c2c1c1[nH]c3ccccc3c1c1c(=O)c3ccccc3c(=O)c21
inactive: CAKI-1 > 100 µM | U-251 > 100 µM | Malme-3M > 100 µM | SNB-19 > 100 µM | HCT-116 > 100 µM | MOLT-4 > 100 µM | UACC-257 > 100 µM | OVCAR-5 > 100 µM | SF-539 > 100 µM | HCC 2998 > 100 µM | RPMI-8226 > 100 µM | KM12 > 100 µM | SN12C > 100 µM | UACC-62 > 100 µM | SK-MEL-5 > 100 µM

O=C(O)Cc1ccccc1CCc1ccccc1Cl
inactive: CAKI-1 > 100 µM | U-251 > 100 µM | Malme-3M > 100 µM | SNB-19 > 100 µM | HCT-116 > 100 µM | MOLT-4 > 100 µM | UACC-257 > 100 µM | OVCAR-5 > 100 µM | SF-539 > 100 µM | HCC 2998 > 100 µM | RPMI-8226 > 100 µM | KM12 > 100 µM | SR > 100 µM | SN12C > 100 µM | SK-MEL-5 > 100 µM

Cn1c2c(c3ccccc31)CCN(CCCN1CCN(c3ccccc3)CC1)C2=O
inactive: CAKI-1 16.7 µM | U-251 16.6 µM | HCT-116 16.1 µM | MOLT-4 13.3 µM | SF-539 17.6 µM | RPMI-8226 16 µM | SN12C 20.6 µM | UACC-62 19.3 µM | SK-MEL-5 18.9 µM

O=C(Nc1ccc([N+](=O)[O-])cc1C(=O)O)c1ccc([N+](=O)[O-])cc1
inactive: U-251 37.4 µM | Malme-3M 32.4 µM | SNB-19 36.6 µM | HCT-116 15.5 µM | MOLT-4 14.8 µM | UACC-257 40 µM | OVCAR-5 45.8 µM | SF-539 9.95 µM | HCC 2998 16 µM | RPMI-8226 14.4 µM | KM12 24.8 µM | SN12C 41.4 µM | UACC-62 42.8 µM | SK-MEL-5 51.3 µM

O=[PH](O)c1cc2ccccc2c2ccccc12
inactive: U-251 > 100 µM | SNB-19 > 100 µM | HCT-116 > 100 µM | MOLT-4 > 100 µM | SF-539 > 100 µM | HCC 2998 > 100 µM | RPMI-8226 > 100 µM | KM12 > 100 µM | SN12C > 100 µM | UACC-62 > 100 µM | SK-MEL-5 > 100 µM

C=C1CCCC2[C@](C)(CC3=C(O)C(=O)C=C(OC)C3=O)[C@@H](C)CC[C@]12C (stereo not given in full)
inactive: CAKI-1 3.62 µM | U-251 4.06 µM | Malme-3M 2.9 µM | HCT-116 3.71 µM | UACC-257 3.3 µM | SF-539 2.79 µM | HCC 2998 7.89 µM | RPMI-8226 2.74 µM | KM12 2.72 µM | SN12C 10.5 µM | UACC-62 2.22 µM | SK-MEL-5 2.42 µM

C=C1C2CC(OC(C)=O)C3(C)C(c4ccoc4)OC(=O)[C@@H](O)[C@]13OC1C[C@H](OC(C)=O)C(C)(C)[C@H](CC(=O)OC)[C@]12C (stereo not given in full)
inactive: U-251 > 100 µM | SNB-19 > 100 µM | HCT-116 > 100 µM | MOLT-4 70.6 µM | SF-539 > 100 µM | HCC 2998 > 100 µM | RPMI-8226 > 100 µM | KM12 > 100 µM | SN12C > 100 µM | UACC-62 > 100 µM | SK-MEL-5 > 100 µM

N#C/C(=C\c1ccc(O)c(O)c1)C(N)=O
inactive: CAKI-1 95.9 µM | U-251 33.9 µM | Malme-3M 50.6 µM | SNB-19 38.5 µM | HCT-116 23 µM | MOLT-4 12.5 µM | UACC-257 36 µM | OVCAR-5 > 100 µM | SF-539 30.5 µM | HCC 2998 53.1 µM | RPMI-8226 15.5 µM | KM12 33.1 µM | SN12C 39.2 µM | UACC-62 52.7 µM

C#C[C@]1(O)CC[C@H]2[C@@H]3CCc4cc(O)ccc4[C@H]3CC[C@@]21C [ETHINYL ESTRADIOL]
inactive: CAKI-1 52.6 µM | U-251 7.8 µM | Malme-3M 30.5 µM | SNB-19 68.5 µM | HCT-116 23 µM | MOLT-4 18.6 µM | UACC-257 41 µM | OVCAR-5 85.3 µM | SF-539 17.6 µM | HCC 2998 18.3 µM | KM12 13.6 µM | SR 16.7 µM | SN12C 36.8 µM | UACC-62 34.3 µM | SK-MEL-5 11.1 µM
